Test results reported in US11098041B2 (Merck Patent GmbH, priority 2014, dated 2021).

What was measured:
full-length human BTK = full-length human BTK (Homo sapiens (Human), UniProt Q06187); experiment: Assay A: microfluidic off-chip mobility shift assay against BTK enzyme; type: biochemical
[1] = target: BTK C481S (His-TEV-hsBTK(328-659)(C481S)) (Homo sapiens (Human), UniProt Q06187, C481S); experiment: Assay B: microfluidic off-chip mobility shift assay against BTK C481S enzyme; type: biochemical; conditions: BTK C481S mutant
BTK C481S (His-TEV-hsBTK(328-659)(C481S)), sequence (Q06187 328-659 C481S): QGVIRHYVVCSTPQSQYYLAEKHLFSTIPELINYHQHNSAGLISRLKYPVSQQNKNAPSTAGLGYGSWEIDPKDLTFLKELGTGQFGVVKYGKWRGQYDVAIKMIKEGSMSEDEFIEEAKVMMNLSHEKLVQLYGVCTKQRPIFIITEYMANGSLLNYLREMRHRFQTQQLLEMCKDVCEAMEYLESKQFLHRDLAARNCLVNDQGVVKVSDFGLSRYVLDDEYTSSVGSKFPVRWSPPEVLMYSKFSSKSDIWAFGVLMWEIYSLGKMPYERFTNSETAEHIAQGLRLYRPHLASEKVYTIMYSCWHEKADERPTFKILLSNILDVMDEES
Summary of the method: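 Substrate-to-phosphopeptide conversion quantified by microfluidic mobility shift with laser-induced fluorescence; IC50 and efficacy from log[inhibitor] vs. % activity.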

[2] = test system: anti-IgM-induced expression of CD69 on CD19 positive cells (B cells) in human PBMCs; experiment: Assay C: PBMC IC50 assay (anti-IgM-induced CD69 expression); type: cell-based; conditions: anti-IgM stimulation
Experimental: Btk is critical for mediating the signalling of B cell antigen receptor (BCR) after anti-IgM stimulation. Based on this principle, a functional cell-based assay was established to determine the potency of compounds at inhibiting anti-IgM-induced expression of CD69, a downstream BCR signaling event, in freshly isolated human peripheral blood mononuclear cells (PBMCs). In the assay, a 90 μl PBMC suspension containing 2.5×10^5 cells was pre-treated with 10 μl of test compound at various concentrations for an hour, and then incubated overnight (approximately 16-18 hours) with 5 μl 420 μg/ml affiniPure F(ab′)2 fragment goat anti-human IgM Fc fragment per well (Dianova, Cat. No.: 109-006-129). After the incubation, the cells were washed and immunostained with an APC-labeled mouse anti-human CD69 (BD Biosciences; clone: FN50), a PerCP-Cy5.5 labelled mouse anti-human CD19 (BD Biosciences; clone: SJ25C1) and a FITC-labelled mouse anti-human CD3 (BD Biosciences; clone: HIT3a), and fixed for flow cytometric analysis of CD69 expression on CD19 positive cells (B cells). The percentage of CD69 expressing CD19 positive cells was plotted against the concentrations of test compounds to obtain a concentration response curve, and calculate an IC50 value as a measure of the potency of test compounds in the assay.

full-length human BTK, sequence (Q06187 whole entry): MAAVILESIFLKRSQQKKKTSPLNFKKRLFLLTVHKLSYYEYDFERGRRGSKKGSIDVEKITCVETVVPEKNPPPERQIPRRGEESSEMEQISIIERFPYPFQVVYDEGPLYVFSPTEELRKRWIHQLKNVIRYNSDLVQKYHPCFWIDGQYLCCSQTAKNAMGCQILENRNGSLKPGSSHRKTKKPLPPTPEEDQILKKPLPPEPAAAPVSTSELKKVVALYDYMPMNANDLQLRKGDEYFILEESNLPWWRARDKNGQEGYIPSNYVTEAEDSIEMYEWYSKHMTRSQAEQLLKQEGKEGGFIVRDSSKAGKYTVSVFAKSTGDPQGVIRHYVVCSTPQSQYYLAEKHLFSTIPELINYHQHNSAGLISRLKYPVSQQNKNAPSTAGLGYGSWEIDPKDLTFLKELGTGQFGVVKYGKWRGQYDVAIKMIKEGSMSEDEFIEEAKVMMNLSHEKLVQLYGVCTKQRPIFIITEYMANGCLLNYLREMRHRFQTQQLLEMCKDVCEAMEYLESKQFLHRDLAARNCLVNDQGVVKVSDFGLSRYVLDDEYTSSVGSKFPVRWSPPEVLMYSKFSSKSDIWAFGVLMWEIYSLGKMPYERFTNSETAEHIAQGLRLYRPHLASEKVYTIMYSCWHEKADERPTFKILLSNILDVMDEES

IC50 (full-length human BTK) [nM]	IC50 [1] [nM]	Structure (SMILES)	IC50 [2] [nM]
< 100	< 100	CN(C)c1nc(C(=O)NCc2ccc(-c3ccnc4[nH]c(-c5cnn(C)c5)nc34)cc2F)no1 [Example 57, 5-(Dimethylamino)-N-(2-fluoro-4-(2-(1-methyl-1H-pyrazol-4-yl)-3H-imidazo[4,5-b]pyridin-7-yl)benzyl)-1,2,4-oxadiazole-3-carboxamide 2,2,2-trifluoroacetate]	1000 to 5000
< 100	< 100	COc1ccc(-c2nc3c(-c4ccc(CN5CCOc6cc(C7CC7)cc(F)c6C5=O)c(F)c4)ccnc3[nH]2)nc1 [Example 40, 8-Cyclopropyl-6-fluoro-4-([2-fluoro-4-[2-(5-methoxypyridin-2-yl)-3H-imidazo[4,5-b]pyridin-7-yl]phenyl]methyl)-2,3,4,5-tetrahydro-1,4-benzoxazepin-5-one]	100 to 1000
< 100	< 100	Cn1cc(-c2nc3c(-c4ccc(CNC(=O)c5noc(C(C)(C)N)n5)c(F)c4)ccnc3[nH]2)cn1 [Example 58, 5-(2-Aminopropan-2-yl)-N-([2-fluoro-4-[2-(1-methyl-1H-pyrazol-4-yl)-3H-imidazo[4,5-b]pyridin-7-yl]phenyl]methyl)-1,2,4-oxadiazole-3-carboxamide]	1000 to 5000
< 100	< 100	CN(C)c1ccc(-c2nc3c(-c4ccc(CNC(=O)c5nc(C(C)(C)C)no5)c(F)c4)ccnc3[nH]2)nc1 [Example 148, 3-(tert-butyl)-N-(4-(2-(5-(dimethylamino)pyridin-2-yl)-3H-imidazo[4,5-b]pyridin-7-yl)-2-fluorobenzyl)-1,2,4-oxadiazole-5-carboxamide]	< 100
< 100	< 100	CN(C)c1ccc(-c2nc3c(-c4cccc(N5CCOc6cc(C7CC7)cc(F)c6C5=O)c4CO)ccnc3[nH]2)nc1 [Example 41, 8-cyclopropyl-4-(3-[2-[5-(dimethylamino)pyridin-2-yl]-3H-imidazo[4,5-b]pyridin-7-yl]-2-(hydroxymethyl)phenyl)-6-fluoro-2,3,4,5-tetrahydro-1,4-benzoxazepin-5-one]	1000 to 5000
< 100	< 100	CC(C)(C)c1ccc(C(=O)NCc2ccc(-c3ccnc4[nH]c(-c5ccc(C6=CCNCC6)cc5)nc34)cc2F)cc1 [Example 66, 4-tert-Butyl-N-[(2-fluoro-4-[2-[4-(1,2,3,6-tetrahydropyridin-4-yl)phenyl]-3H-imidazo[4,5-b]pyridin-7-yl]phenyl)methyl]benzamide]	100 to 1000
< 100	< 100	Cn1cc(-c2nc3c(-c4ccc(CN5Cc6cc(C7CC7)sc6C5=O)c(F)c4)ccnc3[nH]2)cn1 [Example 93, 2-Cyclopropyl-5-([2-fluoro-4-[2-(1-methyl-1H-pyrazol-4-yl)-3H-imidazo[4,5-b]pyridin-7-yl]phenyl]methyl)-4H,5H,6H-thieno[2,3-c]pyrrol-6-one]	100 to 1000
< 100	< 100	Cn1cc(-c2nc3c(-c4ccc(C5(NC(=O)c6noc(C(C)(C)C)n6)CC5)cc4)ccnc3[nH]2)cn1 [Example 53, 5-tert-Butyl-N-(1-[4-[2-(1-methyl-1H-pyrazol-4-yl)-3H-imidazo[4,5-b]pyridin-7-yl]phenyl]cyclopropyl)-1,2,4-oxadiazole-3-carboxamide]	< 100
< 100	< 100	CC(C)(C)c1nc(C(=O)NCc2ccc(-c3ccnc4[nH]c(-c5cccc(OC(F)(F)F)c5)nc34)cc2F)no1 [Example 74, 5-tert-Butyl-N-[(2-fluoro-4-[2-[3-(trifluoromethoxy)phenyl]-3H-imidazo[4,5-b]pyridin-7-yl]phenyl)methyl]-1,2,4-oxadiazole-3-carboxamide; trifluoroacetic acid]	100 to 1000
< 100	< 100	Cn1cc(-c2nc3c(-c4ccc(CNC(=O)CCCC(C)(C)C)c(F)c4)ccnc3[nH]2)cn1 [Example 14, 5,5-Dimethyl-hexanoic acid 2-fluoro-4-[2-(1-methyl-1H-pyrazol-4-yl)-3H-imidazo[4,5-b]pyridin-7-yl]-benzylamide]	1000 to 5000
< 100	< 100	COc1ccnc(-c2nc3c(-c4ccc(CNC(=O)c5noc(C(C)(C)C)n5)c(F)c4)ccnc3[nH]2)c1 [Example 75, 5-tert-Butyl-N-([2-fluoro-4-[2-(4-methoxypyridin-2-yl)-3H-imidazo[4,5-b]pyridin-7-yl]phenyl]methyl)-1,2,4-oxadiazole-3-carboxamide]	100 to 1000
< 100	< 100	CN(C)c1ccc(-c2nc3c(-c4cccc(N5CCOc6cc(C7CC7)cc(F)c6C5=O)c4CO)ccnc3[nH]2)cc1 [Example 39, 8-Cyclopropyl-4-(3-[2-[4-(dimethylamino)phenyl]-3H-imidazo[4,5-b]pyridin-7-yl]-2-(hydroxymethyl)phenyl)-6-fluoro-2,3,4,5-tetrahydro-1,4-benzoxazepin-5-one]	1000 to 5000
< 100	< 100	CN1CCN(c2ccc(-c3nc4c(-c5ccc(CNC(=O)c6noc(C(C)(C)C)n6)c(F)c5)ccnc4[nH]3)nc2)CC1 [Example 79, 5-tert-Butyl-N-[(2-fluoro-4-[2-[5-(4-methylpiperazin-1-yl)pyridin-2-yl]-3H-imidazo[4,5-b]pyridin-7-yl]phenyl)methyl]-1,2,4-oxadiazole-3-carboxamide]	< 100
< 100	< 100	CN1CC=C(c2ccc(-c3nc4c(-c5ccc(CNC(=O)c6noc(C(C)(C)C)n6)c(F)c5)ccnc4[nH]3)cc2)CC1 [Example 86, 5-tert-Butyl-N-[(2-fluoro-4-[2-[4-(1-methyl-1,2,3,6-tetrahydropyridin-4-yl)phenyl]-3H-imidazo[4,5-b]pyridin-7-yl]phenyl)methyl]-1,2,4-oxadiazole-3-carboxamide; Trifluoroacetic Acid]	< 100
< 100	< 100	CC(C)(C)c1nc(C(=O)NCc2ccc(-c3ccnc4[nH]c(-c5ccc(C(O)CO)cn5)nc34)cc2F)no1 (stereo not drawn) [Example 76, 5-tert-Butyl-N-[(4-[2-[5-(1,2-dihydroxyethyl)pyridin-2-yl]-3H-imidazo[4,5-b]pyridin-7-yl]-2-fluorophenyl)methyl]-1,2,4-oxadiazole-3-carboxamide]	< 100
< 100	< 100	CC(C)(C)c1nnc(C(=O)NCc2ccc(-c3ccnc4[nH]c(C5=CCNCC5)nc34)cc2F)o1 [Example 140, 5-tert-Butyl-[1,3,4]oxadiazole-2-carboxylic acid 2-fluoro-4-[2-(1,2,3,6-tetrahydro-pyridin-4-yl)-3H-imidazo[4,5-b]pyridin-7-yl]-benzylamide]	1000 to 5000
< 100	< 100	Cn1cc(-c2nc3c(-c4ccc(CN5CCOc6cc(C7CC7)cc(F)c6C5=O)c(F)c4)ccnc3[nH]2)cn1 [Example 34, 8-Cyclopropyl-6-fluoro-4-([2-fluoro-4-[2-(1-methyl-1H-pyrazol-4-yl)-3H-imidazo[4,5-b]pyridin-7-yl]phenyl]methyl)-2,3,4,5-tetrahydro-1,4-benzoxazepin-5-one]	100 to 1000
< 100	< 100	Cn1cc(-c2nc3c(-c4ccnc(N5CCn6c(cc7c6CC(C)(C)C7)C5=O)c4CO)ccnc3[nH]2)cn1 [Example 11, 2-(3-(hydroxymethyl)-4-(2-(1-methyl-1H-pyrazol-4-yl)-3H-imidazo[4,5-b]pyridin-7-yl)pyridin-2-yl)-7,7-dimethyl-2,3,4,6,7,8-hexahydro-1H-cyclopenta[4,5]pyrrolo[1,2-a]pyrazin-1-one]	100 to 1000
< 100	< 100	Cn1cc(-c2nc3nccc(-c4cccc(N5CCOc6cc(C7CC7)cc(F)c6C5=O)c4CO)c3[nH]2)cn1 [Example 42, 8-Cyclopropyl-6-fluoro-4-[2-(hydroxymethyl)-3-[2-(1-methyl-1H-pyrazol-4-yl)-1H-imidazo[4,5-b]pyridine-7-yl]phenyl]-2,3,4,5-tetrahydro-1,4-benzoxazepin-5-one]	100 to 1000

Structure (SMILES)	IC50 (full-length human BTK) [nM]	IC50 [1] [nM]	IC50 [2] [nM]
Cn1cc(-c2nc3c(-c4ccc(C5(NC(=O)N6CC(OC(C)(C)C)C6)CC5)c(F)c4)ccnc3[nH]2)cn1 [Example 52, 3-(tert-Butoxy)-N-(1-[2-fluoro-4-[2-(1-methyl-1H-pyrazol-4-yl)-3H-imidazo[4,5-b]pyridin-7-yl]phenyl]cyclopropyl)azetidine-1-carboxamide]	< 100	< 100	100 to 1000
CN(C)c1ccc(-c2nc3c(-c4ccc(CNC(=O)N5CC(OC(C)(C)C)C5)c(F)c4)ccnc3[nH]2)nc1 [Example 90, 3-(tert-Butoxy)-N-[(4-[2-[5-(dimethylamino)pyridin-2-yl]-3H-imidazo[4,5-b]pyridin-7-yl]-2-fluorophenyl)methyl]azetidine-1-carboxamide]	< 100	100 to 1000	1000 to 5000
